Assay: Storage stability of statin Ca salt suspensions in omega-3 oils, statin and lactone quantified by HPLC
Type: physicochemical
Protocol: (§1) Atorvastatin Ca (At) in ethyl ester of EPA (97% purity from Equatec) was prepared as follows: The drug substance was weighed into a glass vessel containing a magnetic stir bar and the oil was then added by volume to make a 10 mg/ml suspension. The clear oil made an off-white suspension with the drug, which was uniformly dispersed by magnetic stirring. Each formulation also had 1% BHA via ethanol solution (1% of volume of the final suspension from a 100 mg/mL solution of BHA in anhydrous ethanol, resulting in 1 mg/mL BHA or 0.1% w/V). While stirring the suspensions were individually transferred by mass into 250 ul glass vial inserts to about 260 mg, which was essentially a complete fill. Vials were crimped with a teflon-backed seal and placed on stability stations: 25 C/60% RH, 40 C/75% RH and −20 C for reference. Samples were pulled at monthly intervals and prepared for HPLC analysis using a C18 column, samples were transferred, fully dissolved and diluted to 10.0 ml with dry DMF. At and corresponding lactone were quantified from HPLC chromatograms against standards of the At API. Integration was done using the Perkin Elmer software supplied with the HPLC system.
as §1, with “omega-3 free fatty acid” for “ethyl ester of EPA (97% purity from Equatec)”
as §1, with “Rosuvastatin” for “Atorvastatin”, “(Ro)” for “(At)”
RosuvastatinCa (Ro) in omega-3 free fatty acid was prepared as follows: The drug substance was weighed into a glass vessel containing a magnetic stir bar and the oil was then added by volume to make a 10 mg/ml suspension. The clear oil made an off-white suspension with the drug, which was uniformly dispersed by magnetic stirring. […]

[1] = Ethyl ester omega-3 oil, additive CaCO3, 25° C./60% RH, 3 months
[2] = Ethyl ester omega-3 oil, additive CaCO3, 40° C./75% RH, 1 month
[3] = Ethyl ester omega-3 oil, additive CaCO3, 40° C./75% RH, 3 months
[4] = Ethyl ester omega-3 oil, additive CaCl2, 25° C./60% RH, 3 months
[5] = Ethyl ester omega-3 oil, additive CaCl2, 40° C./75% RH, 1 month
[6] = Ethyl ester omega-3 oil, additive CaCl2, 40° C./75% RH, 3 months
[7] = Ethyl ester omega-3 oil, additive CaHPO4, 25° C./60% RH, 3 months
[8] = Ethyl ester omega-3 oil, additive CaHPO4, 40° C./75% RH, 1 month
[9] = Ethyl ester omega-3 oil, additive CaHPO4, 40° C./75% RH, 3 months
[10] = Ethyl ester omega-3 oil, additive None, 40° C./75% RH, 1 month
[11] = Free acid omega-3 oil, additive CaCO3, 25° C./60% RH, 3 months
[12] = Free acid omega-3 oil, additive CaCO3, 40° C./75% RH, 1 month
[13] = Free acid omega-3 oil, additive CaCO3, 40° C./75% RH, 3 months
[14] = Free acid omega-3 oil, additive CaCl2, 25° C./60% RH, 3 months
[15] = Free acid omega-3 oil, additive CaCl2, 40° C./75% RH, 1 month
[16] = Free acid omega-3 oil, additive CaCl2, 40° C./75% RH, 3 months
[17] = Free acid omega-3 oil, additive CaHPO4, 25° C./60% RH, 3 months
[18] = Free acid omega-3 oil, additive CaHPO4, 40° C./75% RH, 1 month
[19] = Free acid omega-3 oil, additive CaHPO4, 40° C./75% RH, 3 months
[20] = Free acid omega-3 oil, additive None, 40° C./75% RH, 1 month
[21] = Triglyceride omega-3 oil, additive None, 40° C./75% RH, 1 month

SMILES: CC(C)c1c(C(=O)Nc2ccccc2)c(-c2ccccc2)c(-c2ccc(F)cc2)n1CC[C@@H](O)C[C@@H](O)CC(=O)O [Atorvastatin, Atorvastatin Ca]
- At Lactone [1]: 0.26%
- Atorvastatin [1]: 110.7%
- At Lactone [2]: 0.34%
- Atorvastatin [2]: 97.6%
- At Lactone [3]: 1.87%
- Atorvastatin [3]: 111.8%
- At Lactone [4]: 0.35%
- Atorvastatin [4]: 98.2%
- At Lactone [5]: 0.06%
- Atorvastatin [5]: 103.2%
- At Lactone [6]: 0.48%
- Atorvastatin [6]: 97.1%
- At Lactone [7]: 0.38%
- Atorvastatin [7]: 98.0%
- At Lactone [8]: 0.21%
- Atorvastatin [8]: 100.9%
- At Lactone [9]: 4.80%
- Atorvastatin [9]: 90.8%
- At Lactone [10]: 0.18%
- Atorvastatin [10]: 98.0%
- At Lactone [11]: 24.6%
- Atorvastatin [11]: 77.3%
- At Lactone [12]: 1.5%
- Atorvastatin [12]: 101.8%
- At Lactone [13]: 35.2%
- Atorvastatin [13]: 76.4%
- At Lactone [14]: 18.6%
- Atorvastatin [14]: 84.2%
- At Lactone [15]: 13.5%
- Atorvastatin [15]: 87.3%
- At Lactone [16]: 19.8%
- Atorvastatin [16]: 90.7%
- At Lactone [17]: 32.2%
- Atorvastatin [17]: 80.9%
- At Lactone [18]: 13.6%
- Atorvastatin [18]: 99.5%
- At Lactone [19]: 25.2%
- Atorvastatin [19]: 92.0%
- At Lactone [20]: 75.6%
- Atorvastatin [20]: 22.8%
- At Lactone [21]: 4.6%
- Atorvastatin [21]: 85.3%

SMILES: CC(C)c1nc(N(C)S(C)(=O)=O)nc(-c2ccc(F)cc2)c1/C=C/[C@@H](O)C[C@@H](O)CC(=O)O [Rosuvastatin, Rosuvastatin Ca]
- Ro Lactone [1]: 0.31%
- Rosuvastatin [1]: 101.9%
- Ro Lactone [2]: 0.79%
- Rosuvastatin [2]: 79.8%
- Ro Lactone [3]: 5.56%
- Rosuvastatin [3]: 86.1%
- Ro Lactone [4]: 0.23%
- Rosuvastatin [4]: 110.4%
- Ro Lactone [5]: 0.09%
- Rosuvastatin [5]: 93.1%
- Ro Lactone [6]: 1.03%
- Rosuvastatin [6]: 108.8%
- Ro Lactone [7]: 0.26%
- Rosuvastatin [7]: 98.2%
- Rosuvastatin [8]: 96.2%
- Ro Lactone [9]: 9.75%
- Rosuvastatin [9]: 83.7%
- Ro Lactone [10]: 0.92%
- Rosuvastatin [10]: 95.0%
- Ro Lactone [11]: 1.0%
- Rosuvastatin [11]: 100.2%
- Ro Lactone [12]: 0.25%
- Rosuvastatin [12]: 105.4%
- Ro Lactone [13]: 0.83%
- Rosuvastatin [13]: 92.4%
- Ro Lactone [14]: 0.44%
- Rosuvastatin [14]: 101.9%
- Ro Lactone [15]: 0.28%
- Rosuvastatin [15]: 105.2%
- Ro Lactone [16]: 0.39%
- Rosuvastatin [16]: 98.7%
- Ro Lactone [17]: 0.74%
- Rosuvastatin [17]: 99.9%
- Ro Lactone [18]: 0.17%
- Rosuvastatin [18]: 99.5%
- Ro Lactone [19]: 0.69%
- Rosuvastatin [19]: 102.2%
- Ro Lactone [20]: 60.0%
- Rosuvastatin [20]: 39.1%
- Ro Lactone [21]: 2.5%
- Rosuvastatin [21]: 100.6%
